Results reported in ChEMBL document CHEMBL3886877, “Spiro ring compound as hepatitis C virus (HCV) inhibitor and uses thereof” (2016).

Assay: Luciferase Assay: The Huh-7 cells transfected with HCV replicons system were seeded into 96-well plates (8,000 cells in 125 μL/well) respectively; each test compound was diluted to desired concentration using 5-fold serial dilutions protocol, 10 doses in duplicate, and added to wells with POD™ 810 Plate Assembler. […] In this paper, experiments were repeated twice and set the holes without compounds as negative control.

SMILES	EC50 (Huh-7) [pM]	EC50 [pM]
COC(=O)N[C@H](C(=O)N1C[C@@H](C)C[C@H]1[n+]1c[nH]c(-c2ccc(-c3ccc(-c4ccc5nc([C@@H]6C[C@H](C)CN6C(=O)[C@@H](NC(=O)OC)C(C)C)[nH]c(=O)c5c4)c4c3CC3(CCCC3)C4)cc2)c1)C(C)C	6	–
COC(=O)N[C@H](C(=O)N1CCC[C@H]1c1ncc(-c2ccc(-c3ccc(-c4ccc5nc([C@@H]6CCCN6C(=O)[C@@H](NC(=O)OC)C(C)C)[nH]c(=O)c5c4)c4c3CC3(CCCC3)C4)cc2)[nH]1)C(C)C	–	87
